Active and inactive are the calls of the source. No cut-off for these calls is given here.
Target: Kinesin-like protein KIF20B (Homo sapiens) (UniProt Q96Q89)
Assay: Inhibition of MPP1 in human HeLaS3 cells assessed as induction of binucleate phenotype after 18 hrs
Assay type: cell-based
Conditions: HeLa S3

Kinesin-like protein KIF20B (Homo sapiens), sequence (Q96Q89 whole entry): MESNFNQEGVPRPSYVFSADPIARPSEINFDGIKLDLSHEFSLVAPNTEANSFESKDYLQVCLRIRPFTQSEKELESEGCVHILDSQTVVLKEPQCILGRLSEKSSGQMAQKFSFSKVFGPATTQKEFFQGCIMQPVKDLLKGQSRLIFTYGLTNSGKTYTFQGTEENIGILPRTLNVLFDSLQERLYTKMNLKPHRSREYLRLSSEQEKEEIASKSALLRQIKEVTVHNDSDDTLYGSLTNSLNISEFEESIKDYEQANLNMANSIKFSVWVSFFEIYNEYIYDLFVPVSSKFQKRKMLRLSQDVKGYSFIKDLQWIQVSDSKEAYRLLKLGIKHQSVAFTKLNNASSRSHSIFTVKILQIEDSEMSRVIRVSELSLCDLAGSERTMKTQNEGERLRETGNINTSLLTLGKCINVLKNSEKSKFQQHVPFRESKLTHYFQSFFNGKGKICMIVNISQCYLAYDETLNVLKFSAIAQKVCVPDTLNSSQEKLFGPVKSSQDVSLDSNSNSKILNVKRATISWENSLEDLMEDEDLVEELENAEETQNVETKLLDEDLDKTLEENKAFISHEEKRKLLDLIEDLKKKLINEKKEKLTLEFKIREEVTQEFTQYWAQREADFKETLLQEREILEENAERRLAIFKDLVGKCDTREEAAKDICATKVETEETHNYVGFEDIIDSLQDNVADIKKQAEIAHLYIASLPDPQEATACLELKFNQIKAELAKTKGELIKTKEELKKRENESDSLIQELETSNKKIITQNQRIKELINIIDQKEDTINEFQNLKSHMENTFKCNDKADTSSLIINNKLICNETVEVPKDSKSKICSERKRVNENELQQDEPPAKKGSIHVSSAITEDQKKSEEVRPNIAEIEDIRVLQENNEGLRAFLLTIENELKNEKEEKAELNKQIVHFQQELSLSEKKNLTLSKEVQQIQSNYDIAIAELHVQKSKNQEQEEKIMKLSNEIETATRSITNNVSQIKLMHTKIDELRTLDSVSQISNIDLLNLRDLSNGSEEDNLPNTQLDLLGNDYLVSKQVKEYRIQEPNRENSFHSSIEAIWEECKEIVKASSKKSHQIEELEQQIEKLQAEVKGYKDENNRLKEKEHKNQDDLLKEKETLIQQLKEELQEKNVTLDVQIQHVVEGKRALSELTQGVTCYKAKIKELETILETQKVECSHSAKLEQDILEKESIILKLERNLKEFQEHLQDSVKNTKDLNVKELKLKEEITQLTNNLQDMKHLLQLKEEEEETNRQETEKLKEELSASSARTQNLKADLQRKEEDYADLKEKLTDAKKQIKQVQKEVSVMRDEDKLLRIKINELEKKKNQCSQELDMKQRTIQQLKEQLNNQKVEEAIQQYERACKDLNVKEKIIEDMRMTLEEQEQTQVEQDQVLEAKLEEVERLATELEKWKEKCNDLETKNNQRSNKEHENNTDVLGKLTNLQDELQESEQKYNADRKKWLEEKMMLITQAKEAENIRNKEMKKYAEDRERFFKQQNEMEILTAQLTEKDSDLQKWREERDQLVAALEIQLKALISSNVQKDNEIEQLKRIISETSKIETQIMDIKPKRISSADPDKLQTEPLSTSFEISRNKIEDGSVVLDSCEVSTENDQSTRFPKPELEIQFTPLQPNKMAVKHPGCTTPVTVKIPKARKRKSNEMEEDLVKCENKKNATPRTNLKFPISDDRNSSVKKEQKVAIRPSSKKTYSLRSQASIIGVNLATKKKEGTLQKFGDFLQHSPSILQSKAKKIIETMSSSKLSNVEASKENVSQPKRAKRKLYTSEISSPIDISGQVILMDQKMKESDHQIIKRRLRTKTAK

- inhibition: Active
Structure (SMILES): FC(F)(F)c1cc(Cl)c2ncc(-c3ccc(Cl)c(Cl)c3)nc2c1

Reference: ChEMBL document CHEMBL3880384, “2-Phenylquinoxalines as inhibitors for MPP1” (2006)
